# From patent US10428083B2, “Heterocyclylmethyl-thienouracile as antagonists of the adenosine-A2B-receptor” (BAYER PHARMA AKTIENGESELLSCHAFT, priority 2015, dated 2019)
# Target: human adenosine A2b receptor (Homo sapiens (Human), UniProt P29275)
# Assay: Cellular in vitro reporter gene test for A2b receptor activity (CHO-K1, CRE-luciferase, NECA stimulation)
# Assay type: cell-based
# Conditions: recombinant CHO-K1 cell line, CRE-luciferase reporter, antagonism of EC50 concentration of NECA; in some cases means of several determinations, rounded to two significant figures; read-out: A2b receptor IC50
# Procedure, shortened: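 CHO-K1 cells with CRE-driven luciferase; antagonists co-incubated with NECA at its EC50, determined in a pre-experiment on each test day. Luciferase read by luminescence 3 h after NECA addition.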
# Sequence of human adenosine A2b receptor (P29275 whole entry): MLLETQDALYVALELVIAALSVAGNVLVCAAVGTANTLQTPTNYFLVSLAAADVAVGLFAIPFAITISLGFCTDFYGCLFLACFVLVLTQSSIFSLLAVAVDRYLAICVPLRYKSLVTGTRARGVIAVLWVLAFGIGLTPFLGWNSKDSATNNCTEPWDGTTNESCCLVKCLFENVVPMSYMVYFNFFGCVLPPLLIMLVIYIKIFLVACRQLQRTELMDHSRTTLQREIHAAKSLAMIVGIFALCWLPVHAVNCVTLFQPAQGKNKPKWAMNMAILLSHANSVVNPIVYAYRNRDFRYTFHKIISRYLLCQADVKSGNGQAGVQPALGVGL
row,IC50 [nM],Structure (SMILES)
1,14,"COCCn1c(=O)n(C(C)C(F)(F)F)c(=O)c2c(C)c(CN3CCNC3=NC#N)sc21 (racemic) [Example 452, [1-{[1-(2-Methoxyethyl)-5-methyl-2,4-dioxo-3-(1,1,1-trifluoropropan-2-yl)-1,2,3,4-tetrahydrothieno[2,3-d]pyrimidin-6-yl]methyl}imidazolidin-2-ylidene]cyanamide]"
2,6.1,"COC(C)Cn1c(=O)c2c(C)c(CN3CCNC3=NC#N)sc2n(CCC(F)(F)F)c1=O (racemic) [Example 454, [1-{[3-(2-Methoxypropyl)-5-methyl-2,4-dioxo-1-(3,3,3-trifluoropropyl)-1,2,3,4-tetrahydrothieno[2,3-d]pyrimidin-6-yl]methyl}imidazolidin-2-ylidene]cyanamide]"
3,9.9,"COC(=O)N=C1NCCN1Cc1sc2c(c1C)c(=O)n(CC(C)(C)C)c(=O)n2CC1CCCO1 (racemic) [Example 463, Methyl [1-{[3-(2,2-dimethylpropyl)-5-methyl-2,4-dioxo-1-(tetrahydrofuran-2-ylmethyl)-1,2,3,4-tetrahydrothieno[2,3-d]pyrimidin-6-yl]methyl}imidazolidin-2-ylidene]carbamate]"
4,5.1,"COC(=O)N=C1NCCN1Cc1sc2c(c1C)c(=O)n(C(C)C(F)(F)F)c(=O)n2CCC(F)(F)F (racemic) [Example 470, Methyl [1-{[5-methyl-2,4-dioxo-3-(1,1,1-trifluoropropan-2-yl)-1-(3,3,3-trifluoropropyl)-1,2,3,4-tetrahydrothieno[2,3-d]pyrimidin-6-yl]methyl}imidazolidin-2-ylidene]carbamate]"
5,18,"COCCn1c(=O)n(C(C)C(F)(F)F)c(=O)c2c(C)c(CN3CCNC3=NC(=O)OC)sc21 (racemic) [Example 471, Methyl [1-{[1-(2-methoxyethyl)-5-methyl-2,4-dioxo-3-(1,1,1-trifluoropropan-2-yl)-1,2,3,4-tetrahydrothieno[2,3-d]pyrimidin-6-yl]methyl}imidazolidin-2-ylidene]carbamate]"
6,6.7,"COC(=O)N=C1NCCN1Cc1sc2c(c1C)c(=O)n(CC(C)OC)c(=O)n2CCC(F)(F)F (racemic) [Example 472, Methyl [1-{[3-(2-methoxypropyl)-5-methyl-2,4-dioxo-1-(3,3,3-trifluoropropyl)-1,2,3,4-tetrahydrothieno[2,3-d]pyrimidin-6-yl]methyl}imidazolidin-2-ylidene]carbamate]"
7,36,"CCn1c(=O)c2c(C)c(CN3CCNC(=O)C3=O)sc2n(CC2CCCO2)c1=O (racemic) [Example 475, 6-[(2,3-Dioxopiperazin-1-yl)methyl]-3-ethyl-5-methyl-1-(tetrahydrofuran-2-ylmethyl)thieno[2,3-d]pyrimidine-2,4(1H,3H)-dione]"
8,35,"Cc1c(CN2CCNC(=O)C2=O)sc2c1c(=O)n(C(C)C)c(=O)n2CC1CCCO1 (racemic) [Example 480, 6-[(2,3-Dioxopiperazin-1-yl)methyl]-3-isopropyl-5-methyl-1-(tetrahydrofuran-2-ylmethyl)thieno[2,3-d]pyrimidine-2,4(1H,3H)-dione]"
9,45,"Cc1c(CN2CCNC(=O)C2=O)sc2c1c(=O)n(CC(C)(C)C)c(=O)n2CC1CCCO1 (racemic) [Example 483, 3-(2,2-Dimethylpropyl)-6-[(2,3-dioxopiperazin-1-yl)methyl]-5-methyl-1-(tetrahydrofuran-2-ylmethyl)thieno[2,3-d]pyrimidine-2,4(1H,3H)-dione]"
10,250,"Cc1c(CN2CCNC(=O)C2=O)sc2c1c(=O)n(CC(F)(F)F)c(=O)n2CC1CCCO1 (racemic) [Example 487, 6-[(2,3-Dioxopiperazin-1-yl)methyl]-5-methyl-1-(tetrahydrofuran-2-ylmethyl)-3-(2,2,2-trifluoroethyl)thieno[2,3-d]pyrimidine-2,4(1H,3H)-dione]"
